Measured values: PMC7062083, “Metabolite identification, tissue distribution, excretion and preclinical pharmacokinetic studies of ET-26-HCl, a new analogue of etomidate” (Royal Society Open Science, 2020)
Where “and” joins values, the source holds several entries; their conditions need not be identical. Equal entries are not always repeated. Where two headings read alike, the source gives them in different places.

Assays:
[1] = Metabolic stability in mouse liver microsomes; assay type: in vitro ADME
Experimental: (§1) Samples were analysed by LC–MS/MS as mentioned above.2.1 CLint, in vitro=0.693/t1/2/Cprotein, 2.2 CLint, in vivo=CLint, in vitro×Houston×LW/1000 2.3 andCLhep in vivo=HBF × fu ×CLint, in vivo/HBF + fu ×CLint, in vivo. Where Cprotein is microsomal protein concentration (mg ml^−1); Houston is Houston factor (45 mg of microsomal protein g^−1 liver); LW is liver weight (g) (per species); HBF is hepatic blood flow (ml min^−1) (per species); fu (two places) and later is unbound fraction (fu = 1 − %protein binding).

[2] = set-up: method as in earlier work; settings: dog; ref results of the drug effect in the early stage of the cooperation laboratory; cited from earlier work
[3] = set-up: method as in earlier work; settings: rat; ref results of the drug effect in the early stage of the cooperation laboratory; cited from earlier work
[4] = Metabolic stability in human liver microsomes; assay type: in vitro ADME
Experimental: as §1

[5] = Stability in beagle plasma (LC-MS/MS); assay type: in vitro ADME
Experimental: (§2) Concentrations of ET-26-HCl and ET-26-acid in biological samples were determined by liquid chromatography–tandem mass spectrometry (LC–MS/MS) after deproteinization with methanol. The bioanalytical method for simultaneous quantification of ET-26-HCl and ET-26-acid in the different matrix was fully validated according to FDA guidelines (electronic supplementary material, figure S1 and tables S1 and S2) in our previous study. Briefly, a 100 µl sample (plasma, tissue homogenate, bile, urine and faeces suspension) were spiked with 20 µl of IS solution and vortexed for 30 s. The mixture was then processed for protein precipitation with 300 µl methanol, followed by centrifugation at 12 000 r.p.m. for 5 min. Supernatant was collected and analysed by LC–MS/MS system.

[6] = Metabolic stability in rat liver microsomes; assay type: in vitro ADME
Experimental: as §1

[7] = rats, i.v., cited from earlier work
[8] = Excretion (urine, faeces, bile) in Sprague Dawley rats; assay type: in vivo
Experimental: as §2
SD rats (4 male and 4 female) received 4.2 mg kg^−1 of ET-26-HCl intravenously and were housed in metabolic cages. Urine and faeces from the treated rats were collected between 0–6, 6–12, 12–24, 24–30, 30–36 and 36–48 h post-dosing. Urine volume and faeces weight were measured and recorded.
Bile fistulas of SD rats (four male and four female) were cannulated with polyethylene tube (Instech Laboratories, Inc., USA) and bile was collected at the following time-points: 0–3, 3–6, 6–9, 9–12 and 12–24 h post-dosing. The volume of the collected bile was measured and stored at −80°C until analysis.

[9] = Dose tolerance pre-experiment in rats; assay type: in vivo
Experimental: For the PK study of beagle dogs and excretion test of rats, how do you identify those doses? As you described, beagle dogs in the 6 groups received three doses of ET-26- HCl: 1.045 mg/kg, 2.090 mg/kg, and 4.180 mg/kg as low (L), medium (M), and high (H) dose; however, the rats received a single 4.2 mg/kg dose of ET-26-HCl. Please provide the citations or calculation of […]
Thank the reviewer for this comment. According to the “Guidelines for non-clinical pharmacokinetic studies of drugs” of China Food and Drug Administration, the in vivo pharmacokinetic studies of animals should be performed with at least three dose groups, which the high dose is preferably close to the maximum tolerated dose, and the small dose is selected based on the limits of the effective dose of the animals. […]
kg and 1.045 mg/ kg for rat and dog, respectively, according to the results of the drug effect in the early stage of the cooperation laboratory. In our pre-experiment, individual rats appeared myoclonus after the 4-fold ED50 dose administration. When given the higher dose, some rats […]
Thus, the ED50, 2-fold ED50, and 4-fold ED50 dose were used as the low, middle and high dose group for the pharmacokinetic study in our previous research. Similar dosage design was used in our present work. The middle dose (4.2 mg/kg dose of ET-26-HCl) was utilized for the excretion test in rats. […]

[10] = i.v. ET-26-HCl 4.2 mg kg^−1, collected to 48 h

## COCCOC(=O)c1cncn1[C@H](C)c1ccccc1.Cl [ET-26-HCl, (R)-2-methoxyethyl1-(1-phenylethyl)-1H-imidazole-5-carboxylate hydrochloride]
[1]; mouse liver microsomes
  CLint, in vitro: 629 ml min g^−1 protein
  metabolic stability (in words): not metabolically stable
[1]; mouse liver microsomes, Cprotein 0.33 mg ml^−1
  CLint, in vitro: 629 ± 25.7 ml min^−1 g^−1 protein
[1]; mouse, from liver microsomes
  extrapolated CLhep in vivo: 2.8 ± 0.0 mL/min
  extrapolated CLint, in vivo: 42.4 ± 1.7 mL/min
[1]; mouse, liver microsomes, pH 7.4, mouse liver microsomes, Cprotein 0.33 mg ml^−1
  half-life: < 5 min
[2]
  ED50: 1.045 mg/kg
[3]
  ED50: 2.1 mg/kg
[4]; human liver microsomes
  CLint, in vitro: 50.0 ml min g^−1 protein
  metabolic stability (in words): relatively stable
[4]; human liver microsomes, Cprotein 0.33 mg ml^−1
  CLint, in vitro: 50.0 ± 1.9 ml min^−1 g^−1 protein
[4]; human, from liver microsomes
  extrapolated CLhep in vivo: 1077 ± 11.8 mL/min
  extrapolated CLint, in vivo: 3823 ± 146.4 mL/min
[4]; pH 7.4, human liver microsomes, Cprotein 0.33 mg ml^−1
  half-life: 42 ± 1.7 min
[5]; 4◦C for 3 h, nominal 44.92 ng/mL
  Measured concentration (Mean ± SD): 48.79 ± 3.275 ng/mL
[5]; 4◦C for 3 h, nominal 3743 ng/mL
  Measured concentration (Mean ± SD): 3977 ± 294.1 ng/mL
[5]; Freeze and Thaw Cycle (3), nominal 44.92 ng/mL
  Measured concentration (Mean ± SD): 47.75 ± 3.427 ng/mL
[5]; Freeze and Thaw Cycle (3), nominal 3743 ng/mL
  Measured concentration (Mean ± SD): 3722 ± 240.3 ng/mL
[5]; Room temperature 3 h, nominal 44.92 ng/mL
  Measured concentration (Mean ± SD): 47.91 ± 4.952 ng/mL
[5]; Room temperature 3 h, nominal 3743 ng/mL
  Measured concentration (Mean ± SD): 3599 ± 136.1 ng/mL
[5]; –80 ◦C for 30 days, nominal 44.92 ng/mL
  Measured concentration (Mean ± SD): 44.67 ± 4.795 ng/mL
[5]; –80 ◦C for 30 days, nominal 3743 ng/mL
  Measured concentration (Mean ± SD): 3989 ± 229.1 ng/mL
[6]; rat liver microsomes
  CLint, in vitro: 984 ml min g^−1 protein
  metabolic stability (in words): not metabolically stable
[6]; rat liver microsomes, Cprotein 0.33 mg ml^−1
  CLint, in vitro: 984 ± 68.6 ml min^−1 g^−1 protein
[6]; rat, assumed body weight 0.25 kg (printed order)
  extrapolated hepatic clearance normalized to body weight: 1.78 L·h/kg
[6]; rat, from liver microsomes
  extrapolated CLhep in vivo: 19.1 mL/min and 19.1 ± 0.1 mL/min
  extrapolated CLint, in vivo: 443 ± 30.9 mL/min
[7]; 2.1 mg/kg
  AUC0-t: 28.47 ± 3.41 mg·min/L
  CL: 58 ± 11 mL/min/kg
  Cmax: 1820 ± 200 ng/mL
  Vd: 5.37 ± 0.72 L/kg
  t1/2: 65.4 ± 12.6 min
  λ: 0.66 ± 0.24 h⁻¹
[7]; 4.2 mg/kg
  AUC0-t: 41.70 ± 3.61 mg·min/L
  CL: 92 ± 8 mL/min/kg
  Cmax: 3310 ± 210 ng/mL
  Vd: 5.24 ± 1.33 L/kg
  t1/2: 39.6 ± 10.2 min
  λ: 1.20 ± 0.36 h⁻¹
[7]; 8.4 mg/kg
  AUC0-t: 110.92 ± 9.04 mg·min/L
  CL: 64 ± 5 mL/min/kg
  Cmax: 7010 ± 360 ng/mL
  Vd: 4.67 ± 0.99 L/kg
  t1/2: 51 ± 8.4 min
  λ: 0.78 ± 0.12 h⁻¹
[7]
  time until cleared after intravenous administration: ≤ 4 h
[8]; i.v. ET-26-HCl 4.2 mg kg^−1, bile collected to 24 h
  accumulative excretion through bile: 0.619%
[8]; [10]
  accumulative excretion through faeces: 0.076%
  accumulative excretion through urine: 11.97%
[9]; individual rats, after the 4-fold ED50 dose
  adverse signs observed: myoclonus
[9]; some rats, dose higher than 4-fold ED50
  adverse signs observed: convulsions and even died
